Columns and labels:
[1] = DRUGMATRIX: Calcium Channel Type L, Phenylalkylamine radioligand binding (ligand: [3H] (-)-Desmethoxyverapamil (D-888)); type: cell membranes, Rattus norvegicus, Wistar, Brain, Membrane; conditions: Not Active = under 50% inhibition at 10 µM
Melanocortin receptor 3 = Melanocortin receptor 3 (Homo sapiens, UniProt P41968); type: cell membranes, HEK293, Membrane; conditions: hek293; further: in other assays of this panel Not Active means under 50% inhibition at 10 µM
[2] = DRUGMATRIX: Calcium Channel Type L, Dihydropyridine radioligand binding (ligand: [3H] Nitrendipine); type: cell membranes, Rattus norvegicus, Wistar, Cerebral cortex, Membrane; conditions: Not Active = under 50% inhibition at 10 µM
[3] = target: Sigma non-opioid intracellular receptor 1 (Homo sapiens, UniProt Q99720); test: DRUGMATRIX: Sigma1 radioligand binding (ligand: [3H] Haloperidol); type: cell membranes, Jurkat, Membrane; conditions: jurkat; Not Active = under 50% inhibition at 10 µM
Caspase-1 = target: T1, Caspase-1 (Homo sapiens, UniProt P29466); set-up: species or system Escherichia coli;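 further: Caspase-1 enzyme inhibition assay with a peptide substrate; in other assays of this panel Not Active means under 50% inhibition at 10 µM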
T1 sequence (P29466 whole entry): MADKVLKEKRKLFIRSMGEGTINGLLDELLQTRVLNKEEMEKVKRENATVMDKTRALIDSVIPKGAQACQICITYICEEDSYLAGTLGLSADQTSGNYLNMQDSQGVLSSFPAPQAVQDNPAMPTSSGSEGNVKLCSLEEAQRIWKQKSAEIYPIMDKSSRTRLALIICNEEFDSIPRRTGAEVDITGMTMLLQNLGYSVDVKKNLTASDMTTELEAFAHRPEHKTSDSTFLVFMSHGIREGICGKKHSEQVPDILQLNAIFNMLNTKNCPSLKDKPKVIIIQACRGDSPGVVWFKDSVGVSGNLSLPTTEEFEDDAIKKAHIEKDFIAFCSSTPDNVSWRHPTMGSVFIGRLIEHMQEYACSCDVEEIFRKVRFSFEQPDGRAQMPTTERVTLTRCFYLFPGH

[4] = DRUGMATRIX: Sodium/nucleoside co-transporter radioligand binding (ligand: nitrobenzylthioinosine); type: cell membranes, Cavia porcellus, Dunkin-Hartley, Cerebral cortex, Membrane; conditions: Not Active = under 50% inhibition at 10 µM
[5] = target: T2, C-X-C chemokine receptor type 1 (Homo sapiens, UniProt P25024); further: in other assays of this panel Not Active means under 50% inhibition at 10 µM
T2 sequence (P25024 whole entry): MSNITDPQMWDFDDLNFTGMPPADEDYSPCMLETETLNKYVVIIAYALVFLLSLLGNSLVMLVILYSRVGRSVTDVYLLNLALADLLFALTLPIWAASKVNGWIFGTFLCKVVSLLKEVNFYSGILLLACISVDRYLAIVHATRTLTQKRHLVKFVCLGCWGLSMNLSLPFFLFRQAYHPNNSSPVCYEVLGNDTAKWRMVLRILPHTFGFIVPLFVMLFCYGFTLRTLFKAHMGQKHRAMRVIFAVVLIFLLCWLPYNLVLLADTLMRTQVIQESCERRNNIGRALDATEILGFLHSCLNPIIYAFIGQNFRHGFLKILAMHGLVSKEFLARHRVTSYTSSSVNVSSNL

[6] = DRUGMATRIX: beta-Lactamase enzyme inhibition (substrate: Nitrocefin); set-up: species or system Bacillus cereus; conditions: Not Active = under 50% inhibition at 10 µM

Sigma non-opioid intracellular receptor 1, sequence (Q99720 whole entry): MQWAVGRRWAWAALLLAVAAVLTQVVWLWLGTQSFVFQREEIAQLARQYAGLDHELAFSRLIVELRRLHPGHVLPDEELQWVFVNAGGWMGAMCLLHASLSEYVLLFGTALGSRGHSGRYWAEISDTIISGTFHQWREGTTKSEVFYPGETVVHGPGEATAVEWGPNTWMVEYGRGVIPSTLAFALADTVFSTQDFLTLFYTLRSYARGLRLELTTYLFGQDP
Melanocortin receptor 3, sequence (P41968 whole entry): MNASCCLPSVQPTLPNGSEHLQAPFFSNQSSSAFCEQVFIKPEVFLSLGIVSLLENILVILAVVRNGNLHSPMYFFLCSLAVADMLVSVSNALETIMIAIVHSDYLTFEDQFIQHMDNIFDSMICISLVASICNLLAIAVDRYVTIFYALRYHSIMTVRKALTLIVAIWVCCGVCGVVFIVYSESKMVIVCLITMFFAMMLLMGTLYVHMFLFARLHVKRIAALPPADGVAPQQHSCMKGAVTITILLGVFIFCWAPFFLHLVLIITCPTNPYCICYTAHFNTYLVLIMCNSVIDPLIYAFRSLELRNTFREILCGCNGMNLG

C#C[C@]1(OC(C)=O)CC[C@H]2[C@@H]3CCC4=C[C@@H](OC(C)=O)CC[C@@H]4[C@H]3CC[C@@]21C [ETHYNODIOL DIACETATE]
Not Active: IC50 [1] | Ki [1] | IC50 (Melanocortin receptor 3) | IC50 [2] | Ki [2] | IC50 [3] | IC50 (Caspase-1) | IC50 [4] | Ki [4] | IC50 [5] | IC50 [6] | Ki [6]

COc1cc([C@@H]2c3cc4c(cc3[C@@H](O[C@@H]3O[C@@H]5CO[C@@H](C)O[C@H]5[C@H](O)[C@H]3O)[C@H]3COC(=O)[C@H]23)OCO4)cc(OC)c1O [ETOPOSIDE]
Not Active: IC50 [1] | Ki [1] | IC50 (Melanocortin receptor 3) | IC50 [2] | Ki [2] | IC50 [3] | IC50 (Caspase-1) | IC50 [4] | Ki [4] | IC50 [5] | IC50 [6] | Ki [6]

C=CCc1ccc(O)c(OC)c1 [EUGENOL]
Not Active: IC50 [1] | Ki [1] | IC50 (Melanocortin receptor 3) | IC50 [2] | Ki [2] | IC50 [3] | IC50 (Caspase-1) | IC50 [4] | Ki [4] | IC50 [5] | IC50 [6] | Ki [6]

CC(C(=O)O)c1cccc(Oc2ccccc2)c1 (stereo not given) [FENOPROFEN]
Not Active: IC50 [1] | Ki [1] | IC50 (Melanocortin receptor 3) | IC50 [2] | Ki [2] | IC50 [3] | IC50 (Caspase-1) | IC50 [4] | Ki [4] | IC50 [5] | IC50 [6] | Ki [6]

CC(C)(C)NC(=O)[C@H]1CC[C@H]2[C@@H]3CC[C@H]4NC(=O)C=C[C@]4(C)[C@H]3CC[C@]12C [FINASTERIDE]
Not Active: IC50 [1] | Ki [1] | IC50 (Melanocortin receptor 3) | IC50 [2] | Ki [2] | IC50 [3] | IC50 (Caspase-1) | IC50 [4] | Ki [4] | IC50 [5] | IC50 [6] | Ki [6]

COc1ccc2c3c1O[C@H]1C[C@@H](O)C=C[C@@]31CCN(C)C2 [GALANTAMINE]
Not Active: IC50 [1] | Ki [1] | IC50 (Melanocortin receptor 3) | IC50 [2] | Ki [2] | IC50 [3] | IC50 (Caspase-1) | IC50 [4] | Ki [4] | IC50 [5] | IC50 [6] | Ki [6]

Nc1ccn([C@@H]2O[C@H](CO)[C@@H](O)C2(F)F)c(=O)n1 [GEMCITABINE]
Not Active: IC50 [1] | Ki [1] | IC50 (Melanocortin receptor 3) | IC50 [2] | Ki [2] | IC50 [3] | IC50 (Caspase-1) | IC50 [4] | Ki [4] | IC50 [5] | IC50 [6] | Ki [6]

CC(C)=CCC/C(C)=C/CO [GERANIOL]
Not Active: IC50 [1] | Ki [1] | IC50 (Melanocortin receptor 3) | IC50 [2] | Ki [2] | IC50 [3] | IC50 (Caspase-1) | IC50 [4] | Ki [4] | IC50 [5] | IC50 [6] | Ki [6]

N=C(N)NC(=O)Cc1c(Cl)cccc1Cl [GUANFACINE]
Not Active: IC50 [1] | Ki [1] | IC50 (Melanocortin receptor 3) | IC50 [2] | Ki [2] | IC50 [3] | IC50 (Caspase-1) | IC50 [4] | Ki [4] | IC50 [5] | IC50 [6] | Ki [6]

Oc1c(Cl)cc(Cl)c(Cl)c1Cc1c(O)c(Cl)cc(Cl)c1Cl [HEXACHLOROPHENE]
Not Active: IC50 [1] | Ki [1] | IC50 (Melanocortin receptor 3) | IC50 [2] | Ki [2] | IC50 [3] | IC50 (Caspase-1) | IC50 [4] | Ki [4] | IC50 [5] | IC50 [6] | Ki [6]

— ChEMBL document CHEMBL1909046, “DrugMatrix in vitro pharmacology data”
